Entries after “also recorded” stand apart in the source; their conditions may differ. Where no end group is shown, it is not given here.
Columns and labels:
ERK = test: Growth factor-induced ERK phosphorylation in HUVEC (western blot); assay type: cell-based, Human
Experimental: (§1) Cell culture. Human umbilical vein endothelial cells (HUVEC) and pulmonary aortic smooth muscle cells (PASMC) were obtained from Clonetics and maintained in endothelial cell basal medium-2, (EBM-2; Clonetics) and smooth muscle medium-2 (SmGM-2; Clonetics), respectively. Cells were cultured at 37° C. under a humidified atmosphere containing 5% CO2. For experimental purposes, cells were plated in 8 100-mm plastic dishes at 5,000 cells/cm^2 and were grown to confluence before overnight serum starvation. Cells were treated with vehicle or with a PCK3145 derivative diluted in 0.1 N NaOH, and stimulated with 50 ng/ml VEGF, PDGF or with 1 μM S1P.
Immunoprecipitation and immunoblotting procedures. After treatment, cells were washed once with phosphate-buffered saline (PBS) containing 1 mM sodium orthovanadate and were incubated in the same medium for 1 h at 4° C. The cells were solubilized on ice in lysis buffer (150 mM NaCl, 10 mM Tris-HCl, pH 7.4, 1 mM EDTA, 1 mM EGTA, 0.5% Nonidet P-40, 1% Triton X-100) containing 1 mM sodium orthovanadate. The cells were then scraped from the culture dishes and the resulting lysates were clarified by centrifugation at 10,000 g for 10 min. Protein concentrations were determined using the micro bicinchoninic acid method. For immunoprecipitation studies, lysates were clarified by a 1 h incubation at 4° C. with a mixture of Protein A/Protein G Sepharose beads. After removal of the Sepharose beads by low-speed centrifugation, identical amounts of protein (200 μg) from each sample were transferred to fresh tubes and incubated in lysis buffer overnight at 4° C. in the presence of 2 μg/ml of specific antibodies. Immunocomplexes were collected by incubating the mixture with 25 μl (50% suspension) of Protein A—(rabbit primary antibody) or Protein G—(mouse primary antibody) Sepharose beads, for 2 h. Nonspecifically-bound material was removed by washing the beads three times in 1 ml of lysis buffer containing 1 mM sodium orthovanadate, and bound material was solubilized in 25 μl of two-fold concentrated Laemmli sample buffer, boiled 5 min, and resolved by SDS-PAGE. The proteins were transferred onto polyvinylidene difluoride (PVDF) membranes, blocked 1 h at room temperature with Tris-buffered saline/Tween 20 (147 mM NaCl, 20 mM Tris/HCl, pH 7.5, and 0.1% Tween 20) containing 2% bovine serum albumin and incubated overnight at 4° C. with primary antibody.
VEGF is a strong activator of ERKs (Extracellular-signal-Regulated protein Kinases) 1 and 2 via VEGF receptor 2. In order to test the ability of the PCK3145 derivative in potentially antagonizing VEGF-mediated ERK phosphorylation, serum-starved quiescent endothelial cells (HUVEC) were incubated with vehicle (phosphate-buffered saline (PBS) pH 7.4) or PCK3145 derivative (300 μg/ml) for 24 h and then stimulated with VEGF, bFGF (basic Fibroblast Growth Factor) or S1P (sphingosine-1-phosphate). Cells were washed with PBS containing NaF/Na3VO4 and incubated in the same medium buffer for 1 h at 4° C. The cells were scraped from the culture dishes and the resulting lysates clarified by centrifugation. Western blotting and immunodetection using anti-phosphoERK and anti-ERK antibodies was then performed.

VEGFR-2 = target: T1, VEGFR-2 (Homo sapiens, UniProt P35968); test: VEGF-induced VEGFR-2 phosphorylation in HUVEC (immunoprecipitation, western blot); assay type: cell-based
T1 construct: host or cells: HUVEC
Experimental: as §1
Immunoprecipitation and immunoblotting procedures. After treatment, cells were washed once with phosphate-buffered saline (PBS) containing 1 mM sodium orthovanadate and were incubated in the same medium for 1 h at 4° C. The cells were solubilized on ice in lysis buffer (150 mM NaCl, 10 mM Tris-HCl, pH 7.4, 1 mM EDTA, 1 mM EGTA, 0.5% Nonidet P-40, 1% Triton X-100) containing 1 mM sodium orthovanadate. The cells were then scraped from the culture dishes and the resulting lysates were clarified by centrifugation at 10,000 g for 10 min. Protein concentrations were determined using the micro bicinchoninic acid method. For immunoprecipitation studies, lysates were clarified by a 1 h incubation at 4° C. with a mixture of Protein A/Protein G Sepharose beads. After removal of the Sepharose beads by low-speed centrifugation, identical amounts of protein (200 μg) from each sample were transferred to fresh tubes and incubated in lysis buffer overnight at 4° C. in the presence of 2 μg/ml of specific antibodies. […]
The multifunctionality of VEGF at the cellular level results from its ability to initiate a diverse, complex and integrated network of signaling pathways via its major receptor, VEGFR-2. […] After each treatment, equal amounts of protein were immunoprecipitated with anti-VEGFR-2 polyclonal antibodies and analysed by Western blotting.

T1 sequence (P35968 20-1356): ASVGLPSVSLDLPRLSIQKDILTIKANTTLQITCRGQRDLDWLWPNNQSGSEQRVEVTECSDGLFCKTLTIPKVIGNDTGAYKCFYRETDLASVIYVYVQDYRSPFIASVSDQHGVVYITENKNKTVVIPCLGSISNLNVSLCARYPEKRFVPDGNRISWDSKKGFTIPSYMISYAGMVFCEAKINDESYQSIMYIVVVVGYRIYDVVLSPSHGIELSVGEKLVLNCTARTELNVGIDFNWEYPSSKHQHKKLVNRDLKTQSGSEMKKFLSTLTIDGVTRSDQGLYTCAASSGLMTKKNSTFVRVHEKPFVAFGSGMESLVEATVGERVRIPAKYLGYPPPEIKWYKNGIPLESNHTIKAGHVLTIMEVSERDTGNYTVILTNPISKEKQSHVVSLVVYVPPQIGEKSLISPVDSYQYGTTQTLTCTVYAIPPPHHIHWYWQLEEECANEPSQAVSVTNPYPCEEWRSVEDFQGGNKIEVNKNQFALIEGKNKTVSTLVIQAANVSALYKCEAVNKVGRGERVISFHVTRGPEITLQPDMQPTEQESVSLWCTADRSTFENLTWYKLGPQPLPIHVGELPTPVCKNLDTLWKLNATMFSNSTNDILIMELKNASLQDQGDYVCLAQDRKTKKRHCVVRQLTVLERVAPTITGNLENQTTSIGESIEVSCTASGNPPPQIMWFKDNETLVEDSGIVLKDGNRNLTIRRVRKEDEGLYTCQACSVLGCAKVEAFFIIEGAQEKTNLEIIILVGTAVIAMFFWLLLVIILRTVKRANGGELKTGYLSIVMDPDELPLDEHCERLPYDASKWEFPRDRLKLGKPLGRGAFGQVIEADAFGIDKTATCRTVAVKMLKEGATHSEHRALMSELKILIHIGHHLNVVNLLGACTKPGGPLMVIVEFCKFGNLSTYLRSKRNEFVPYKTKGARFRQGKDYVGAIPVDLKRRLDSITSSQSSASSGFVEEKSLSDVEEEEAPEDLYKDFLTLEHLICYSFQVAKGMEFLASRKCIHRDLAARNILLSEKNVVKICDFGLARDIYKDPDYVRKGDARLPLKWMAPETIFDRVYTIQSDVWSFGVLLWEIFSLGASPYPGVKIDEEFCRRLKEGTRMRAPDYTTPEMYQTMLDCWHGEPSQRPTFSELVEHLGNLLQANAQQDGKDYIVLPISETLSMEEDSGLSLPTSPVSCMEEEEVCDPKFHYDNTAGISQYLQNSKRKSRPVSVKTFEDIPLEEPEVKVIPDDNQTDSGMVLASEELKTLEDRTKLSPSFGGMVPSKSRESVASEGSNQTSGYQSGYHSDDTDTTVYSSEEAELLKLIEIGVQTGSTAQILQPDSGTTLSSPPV

dose dependence of inhibition of VEGF-induced VEGFR-2 phosphorylation (VEGFR-2; HUVEC): dose-dependent | phosphorylation of VEGFR-2 induced by VEGF (VEGFR-2; serum-starved HUVEC, 300 μg/ml, 24 h): inhibited
Sequence: EWQTDNCETCTCYET (cysteine pairing not given here)
time-course of effect on VEGF-induced ERK phosphorylation (ERK; HUVEC, 3 and 24 hrs): necessity of a long term action | total amount of ERK (ERK; HUVEC, each sample of cells): unaffected | dose-response of ERK phosphorylation by VEGF (ERK; HUVEC, increasing doses): gradually inhibit | ERK phosphorylation induced by VEGF (ERK; serum-starved HUVEC, 300 μg/ml for 24 h, then VEGF): specific inhibitory effect; also recorded: comparable to that of PD98059 | ERK phosphorylation induced by bFGF (ERK; serum-starved HUVEC, 300 μg/ml for 24 h, then bFGF): not that induced by bFGF

Reference: patent US20050148514A1, “Method and composition for treatment of angiogenesis” (priority 2003, published 2005)
